Measured values from patent US20130261142A1, “COMPOUNDS USED FOR TREATING CANCER AND THE USE THEREOF” (priority 2010, published 2013).
Entries after “also recorded” stand apart in the source; their conditions may differ.

Tests used:
MDA-MB231 SPS cells = experiment: Survival of MDA-MB231 SPS cells; type: cell-based, human; settings: following Niclosamide treatment
MCF-7 sps cells [1] = experiment: MCF-7 sps tumors in NOD/SCID mice; type: in vivo; settings: MCF-7 sps cells in NOD/SCID mice, 5 μM Niclosamide
Hes-1 = experiment: Protein expression in Niclosamide-treated MCF-7 sps cells: Hes-1; type: cell-based; settings: MCF-7 sps cells treated with Niclosamide
OVCA sps cells = experiment: LOPAC compounds tested on OVCA sps cells, MTS / ATP-based assay (Table 3); type: cell-based; settings: proliferation and differentiation
Method: CP70 sps cells were seeded in a 96-well culture plate (1×10^3 cells/well) and cultured for 24 hr, and then treated with 30 μM of various compounds selected from the LOPAC database. Following 3-day treatment, the vitality of the treated cells was measured by CellTiter-Glo® Luminescent Cell Vitality Assay kit (Promega) according to the manufacturer's instructions.
(§1) The vitality of the treated cells was measured by MTS assay using MTS-based CellTiter 96 aqueous non-radioactive cell proliferation assay kit (Promega) according to the manufacturer's instructions.

CP70 sps cells [2] = experiment: CP70 sps tumors in NOD/SCID mice (preclinical test); type: in vivo
Method: For preclinical test, two groups with five mice each were i.p. injected with 1×10^4 of CP70 sps cells alone or followed by Niclosamide treatment (10 mg/kg/daily) from day 1 to day 47, respectively. […] After 48 days, the mice were sacrificed to examine the tumor nodules formation in the abdominal cavity.

MDA-MB 231 cells = experiment: Inhibition of MDA-MB 231 cells; type: cell-based, human; settings: 3 μM
MCF-7 SPS cells [3] = experiment: MCF-7 SPS spheroid proliferation and differentiation
Description: (§3) The morphology and number of the spheroids were further analyzed by software image pro plus.

OCT4 = experiment: Flow cytometry of OCT4 in MCF-7 sps cells; type: cell-based; settings: 5 μM
[4] = tested on: OVCICs sps cells collected from ovarian cancer patient(s); experiment: Patients' OVCA specimen-derived cells (pdOVCICs / OVCICs sps), MTS assay; type: cell-based, human; settings: in vitro
Method: A total of 5000 pdOVCICs were seeded onto each well in 96-well plates and each plate was treated with different concentrations of Niclosamide in duplicates for 3 days. The vitality of pdOVCICs cells was measured by MTS assay.

CP70 sps cells [5] = experiment: Cytotoxicity / vitality of CP70 sps cells (MTS assay); settings: FIG. 14 / FIG. 15
Method: as §1
The vitality of the CP70 sps cells was measured by MTS assay. For preclinical test, two groups with five mice each were i.p. injected with 1×10^4 of CP70 sps cells alone or followed by Niclosamide treatment (10 mg/kg/daily) from day 1 to day 47, respectively. The body weights of the two groups of mice were monitored every 3 days during day 36 to day 48. After 48 days, the mice were sacrificed to examine the tumor nodules formation in the abdominal cavity.

Cyclin D1 = experiment: Protein expression in Niclosamide-treated MCF-7 sps cells: Cyclin D1; type: cell-based; settings: MCF-7 sps cells treated with Niclosamide
PTCH = experiment: Protein expression in Niclosamide-treated MCF-7 sps cells: PTCH; type: cell-based; settings: MCF-7 sps cells treated with Niclosamide
MCF-7 SPS cells [6] = experiment: LOPAC compounds tested on MCF-7 SPS cells (Table 2); settings: Compounds that inhibit cancer stem cells, 3 μM stated for Niclosamide
Description: as §3

shh = experiment: Signaling inhibitors on MCF-7 SPS cells: shh; type: cell-based; settings: 30 μM, 3 days
Description: Moreover, MCF-7 SPS cells were affected by the expression of Wnt, NOTCH and shh which caused morphological changes. […] Based on the aforementioned experiments, MCF-7 SPS cells contain cancer stem cells that can undergo further differentiation (FIG. 5B).

MCF-7 cells = experiment: Toxicity of Paclitaxol on MCF-7 cells; type: cell-based
Description: (§2) Next, we compared the toxicity effects of the anti-cancer drug, Paclitaxol, on MCF-7 cells, MCF-7 SPS cells, MDA-MB 231 cells and MDA-MB 231 SPS.

MCF-7 SPS cells [7] = experiment: Toxicity of Paclitaxol on MCF-7 sps cells; type: cell-based
Description: as §2

Compound: O=C(Nc1ccc([N+](=O)[O-])cc1Cl)c1cc(Cl)ccc1O [Niclosamide]
- survival of MDA-MB231 SPS cells (MDA-MB231 SPS cells): negatively correlated with the treatment
- sizes and weights of the tumors vs untreated mice (MCF-7 sps cells [1]): smaller and lighter
- inhibition of Hes-1 expression (Hes-1): 33.1%
- Cancer cell survival (%) (OVCA sps cells): 34.86%
- sizes and weights of the tumors vs untreated mice (CP70 sps cells [2]; CP70 sps cells in NOD/SCID mice, 5 μM Niclosamide): significantly different; also recorded: smaller and lighter
- inhibition on cancer stem cells in pre-clinical ovarian cancer studies (CP70 sps cells [2]; mouse, in vivo): successful inhibition
- numbers of ovarian cancer cells in the tumors (CP70 sps cells [2]; tumors from Niclosamide-treated animals (FIG. 13B)): inhibited
- inhibition of MDA-MB 231 cells (MDA-MB 231 cells): significantly inhibited
- inhibition of MCF-7 sps cells (MCF-7 SPS cells [3]; 3 μM): significantly inhibited
- proliferation and differentiation of the spheroid (MCF-7 SPS cells [3]; MCF-7 SPS, 3 μM and 30 μM for 48 hr): efficiently inhibit
- differentiation and proliferation / formation of MCF-7 SPS cells (MCF-7 SPS cells [3]; concentration not given): inhibit the formation; also recorded: significantly inhibited
- expression of OCT4 (OCT4): higher expression
- differentiation and growth of ovarian cancer cells [4]: successfully inhibited
- numbers of ovarian cancer stem cells in CP70 SPS cell culture in vitro (CP70 sps cells [5]): inhibited
- inhibition of Cyclin D1 expression (Cyclin D1): 57.4%
- inhibition of PTCH expression (PTCH): 79.2%
- Cancer cell survival (%) (MCF-7 SPS cells [6]): 1.4%

Compound: CC1=C2C[C@H]3[C@@H](CC=C4C[C@@H](O)CC[C@@]43C)[C@@H]2CC[C@]12O[C@@H]1C[C@H](C)CN[C@H]1[C@H]2C [cyclopamide]
- expression of shh (shh): inhibited

Compound: CC(=O)O[C@H]1C(=O)[C@@]2(C)[C@H]([C@H](OC(=O)c3ccccc3)[C@]3(O)C[C@H](OC(=O)[C@H](O)[C@@H](NC(=O)c4ccccc4)c4ccccc4)C(C)=C1C3(C)C)[C@]1(OC(C)=O)CO[C@@H]1C[C@@H]2O [Paclitaxol]
- toxicity effect on MCF-7 cells (MCF-7 cells): notably inhibited
- toxicity effect on MCF-7 sps cells (MCF-7 SPS cells [7]): no effect
